The record followed here is US11857522B2, “Compositions containing tucaresol or its analogs” (BeyondSpring Pharmaceuticals, Inc., priority 2016, dated 2024).

The test system of the assay is MC-38 tumor cells. The assay is described as follows: MC-38 tumor model, comparison of tucaresol and CTLA-4 antibody (Example 9). In kind it is in vivo, mice. As to conditions: FIG. 4. As to the method: The treatment with the combination of tucaresol, a PD-1 antibody, and CTLA-4 antibody was compared with the combination of PD-1 antibody and CTLA-4 antibody for their tumor inhibition effects. The tests were performed using seven to ten-week old immune competent mice that were injected subcutaneously with MC-38 tumor cells.
Three testing groups were prepared. Group A was administered with PD-1 antibody (3 mg/kg)/CTLA-4 antibody (3 mg/kg) combined treatment; Group B was administered with a tucaresol (10 mg/kg)/PD-1 antibody (3 mg/kg) CTLA-4 antibody (3 mg/kg) combined treatment; and Group C was administered with a PD-1 antibody (3 mg/kg)/CTLA-4 antibody (10 mg/kg) combined treatment. […]
Each treatment started at tumor size between 40-150 mm^3 and continued until Day 24. To determine the efficacy of each treatment, the following data were collected: mortality rate; the body weight of the mice assessed twice weekly both prior to treatments; the rate of tumor growth as determined by the tumor size measurement (twice every week); the tumor growth index; overall survival rate; the time required to double tumor size and the tumor weight at necropsy.

Each structure is given as a SMILES string.

In the case of `O=Cc1c(O)cccc1OCc1ccc(C(=O)O)cc1` [tucaresol, 4-[(2-formyl-3-hydroxy-phenoxy)methyl]benzoic acid], the “anti-tumor effect of the combination (MC 38 tumor growth)” value (tucaresol 10 mg/kg added to PD-1 antibody (3 mg/kg)/CTLA-4 antibody (3 mg/kg), compared with raising CTLA-4 antibody from 3 mg/kg to 10 mg/kg, until Day 24) is on record as “increased the anti-tumor effect of the combination to a greater extent than increasing the dose of the CTLA-4 antibody”. In addition, the inhibiting tumor growth result (used together with immune checkpoint inhibitors such as PD-1 antibody, MC-38 tumors in mice) is “more effective in inhibiting tumor growth than CTLA-4 antibody”.
